Assay results from patent publication US20160331723A1, “PHARMACOLOGICAL TREATMENT OF ATTENTION DEFICIT AND/OR HYPERACTIVITY” (BIOCODEX, priority 2013, published 2016).

Columns and labels:
Wistar kyoto (WKY) rats [1] = test: Actimetry (opto-varimex), juvenile WKY control rats; format: in vivo, rat; settings: 200 mg/kg i.p., vs vehicle
Method: (§1) Juvenile (25-30 days old, 80-120 g) or adolescent (40-45 days old, 140-160 g) male Wistar SHR rats or the control strain Wistar kyoto (WKY) rats, from River Germany, were used in this study. They were housed 2 per cage (Techniplast ref. 1291), and maintained in a 12 h light/dark cycle (light ON at 7 AM). Food and water were provided ad libitum. Rats were acclimated to the animal facilities at least 5 days before testing started. The experiments were conducted in accordance with the European Recommendations (directive 86/609/EEC) for the use and care of laboratory animals.
(§2) Animals are placed in the opto-varimex system (Plexiglas arena, 42×42 cm, Columbus Instruments, Columbus, Ohio), an automated system to quantify their activity as horizontal or vertical movements. Animals are habituated to the behavioral room for one hour before the beginning of the test, illumination intensity is around 400 lux. Activity is recorded immediately after placing the animal in the system, forty five minutes after injection, for a one hour period. Animals are assigned to a test group and tested only once. […]
(§3) Data are represented as the mean±standard error of mean (S.E.M.). The difference between Stiripentol and vehicle treated rats, was assessed with an ANOVA or repeated measures ANOVA (one factor repetition). […]

[2] = test system: WKY (control) or SHR adolescent rats; test: Grip test (muscular strength); format: in vivo, rat; settings: WKY and SHR rats (40-45 days old), 200 mg/kg i.p., 1 hour after administration, p=0.058, listed as STP
Method: The grip test measures the muscular strength of the animal. This test is used to identify myorelaxant properties of compounds. An electronic system is used (Bioseb) to measure the force developed by a rat grasping a T-shape bar with its forelimb. Five consecutive measures are taken, data are expressed as mean±standard error of mean. […] Measures are taken 60 minutes after intraperitoneal (i.p.) injection.
Stiripentol (batch 176, dissolved in 5% tween 80 in 0.9% NaCl) was administered i.p. at the dose of 200 mg/kg with an injection volume of 10 ml/kg.
Data are represented as the mean±standard error of mean (S.E.M.). The difference between Stiripentol and vehicle treated rats, was assessed with an ANOVA or repeated measures ANOVA (one factor repetition). Significance was set at p<0.05 (Sigma Stat, v3.5, SPSS, Chicago, USA).

[3] = test system: epilepsy seizures in children presenting with Dravet syndrome; settings: add-on therapy to valproate and clobazam; cited from earlier work
Wistar kyoto (WKY) rats [4] = test: Open field test, juvenile WKY control rats; format: in vivo, rat; settings: 200 mg/kg i.p., second 10 minutes period, vs vehicle
Method: as §1
Rats are placed in the middle of an open field (a closed arena of 1 m×1 m), and recorded with a videotracking system (Videotrack, Viewpoint S.A., Lyon France). The arena is separated in 9 equivalent zones on the analysis software. Illumination intensity is set around 30 lux. The number of rearings and zone changes is recorded during 2 consecutive 10 minutes periods. The test is started forty five minutes after vehicle or STP injection. For juvenile rats (around 25 days old, n=30 SHR rats, n=30 WKY rats), each rat was randomly assigned to a test group and tested once. […]
as §3

[5] = several animal models; cited from earlier work
[6] = test system: Spontaneously Hypertensive Rat (SHR); test: Actimetry (opto-varimex), juvenile SHR rats; format: in vivo; settings: 200 mg/kg i.p., vs vehicle
Method: as §1, §2, §3

[7] = test system: Spontaneously Hypertensive Rat (SHR); test: Open field test, juvenile SHR rats; format: in vivo; settings: 200 mg/kg i.p., second 10 minutes period, vs vehicle, p<0.001
Description: The inventors have examined the potential new therapeutic application of Stiripentol (STP, Diacomit®) in attention deficit and hyperactivity disorder (ADHD). For this, the effect of an acute administration of Stiripentol, on hyperactivity in rats was studied. The model chosen for this study is the Spontaneously Hypertensive Rat (SHR), a rat model that has been described as a model for hyperactivity (Sagvolden et al. (1992) Behav. Neural. Biol. 58:103-112; Sagvolden et al. (2009) Neuropharmacology 57:619-626; Davids et al. (2003) Brain Res. Brain Res. Rev. 42:1-21) and three behavioral tests were run: an open field test, an actimetry test and a grip test.
Juvenile (25-30 days old, 80-120 g) or adolescent (40-45 days old, 140-160 g) male Wistar SHR rats or the control strain Wistar kyoto (WKY) rats, from River Germany, were used in this study. […]
Rats are placed in the middle of an open field (a closed arena of 1 m×1 m), and recorded with a videotracking system (Videotrack, Viewpoint S.A., Lyon France). […] The number of rearings and zone changes is recorded during 2 consecutive 10 minutes periods. […]
as §3

With `CC(C)(C)C(O)/C=C/c1ccc2c(c1)OCO2` (racemic) [Stiripentol, 1-penten-3-ol,1-(1,3-benzodioxol)-4,4-dimethyl] the “locomotor (ambulatory) activity in actimetry” value (Wistar kyoto (WKY) rats [1]; WKY control juvenile rats, one hour recording) was “no effect”, the “number of rearings in actimetry” value (Wistar kyoto (WKY) rats [1]; WKY juvenile rats) was “no effect” and the “strength developed in the grip test (myorelaxant effect)” value [2] was “no significant effect”. For the same molecule, the “efficacy in controlling epilepsy seizures (responder rate)” value [3] was “demonstrated”, the “rearing activity in open field” value (Wistar kyoto (WKY) rats [4]) was “no effect” and the anticonvulsant activity [5] was “shown anticonvulsant activity”. For the same molecule, the “rearing behavior in actimetry” value [6] was “statistically decreases”, the “rearing activity in open field” value ([7]; SHR juvenile rats (25 days old)) was “significantly decreases” and the “number of zone changes in open field” value ([7]; SHR juvenile rats) was “decreased”.
